ChEMBL document CHEMBL3882730, “Organic Compounds as Smo Inhibitors” (2010)
Converted amounts (≈) assume the structure as drawn.

Test: Equilibrium solubility of the compound at pH 6.8
Assay type: physicochemical
Details: buffer

Structure (SMILES): CC(C)(O)c1cnc(N2CCN(c3nnc(Cc4ccccc4)c4c3CCC4)CC2)cn1
- solubility thermodynamic: < 5 µM

Structure (SMILES): C[C@@H]1CN(c2nnc(Cc3ccccc3)c3c2CCC3)CCN1c1cnc(C(C)(C)O)cn1
- solubility thermodynamic: 5 to 20 µM (≈ 2.22 to 8.89 µg/mL)
